Experimental data from PMC5869712 (Scientific Reports, 2018).

Legend:
ERBB4 = molecular target: T1, ERBB4 (Homo sapiens, UniProt Q15303); assay: Cys-containing kinase family panel (EurofinsCerep); assay type: biochemical
T1 construct: EurofinsCerep (contract assay service)

MKK4 = molecular target: T2, MKK4 (Mus musculus, UniProt P47809); assay: Eurofins Kinase Profiler panel; assay type: biochemical; conditions: read-out: % inhibition (1μM), DMSO control=100%, lower=stronger
T2 construct: purchased Eurofins KinaseProfiler (Eurofins Pharma Discovery Services UK, Dundee); JAK3 also ChemPartner
T2 sequence (P47809 2-397 limits assumed): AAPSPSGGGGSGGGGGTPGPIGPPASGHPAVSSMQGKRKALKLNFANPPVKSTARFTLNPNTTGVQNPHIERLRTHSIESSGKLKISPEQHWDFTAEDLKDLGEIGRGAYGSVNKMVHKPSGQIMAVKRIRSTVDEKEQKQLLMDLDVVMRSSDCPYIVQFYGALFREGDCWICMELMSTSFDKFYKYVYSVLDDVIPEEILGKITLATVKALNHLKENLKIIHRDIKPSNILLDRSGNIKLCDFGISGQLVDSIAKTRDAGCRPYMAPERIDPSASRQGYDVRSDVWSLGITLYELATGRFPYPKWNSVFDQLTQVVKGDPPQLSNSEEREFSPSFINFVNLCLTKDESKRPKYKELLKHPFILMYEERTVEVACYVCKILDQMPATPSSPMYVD

[1] = tested on: DBA/1 mice with collagen-induced arthritis; assay: Collagen-induced arthritis mouse model: clinical score, histology, safety; assay type: in vivo; conditions: CIA mice; for group mean histological severity score: model group 3.8, grades 0-4
Description: The animal protocol was approved by the Animal Care and Use Committee of Sichuan University in China (IACUC number: 20100318). DBA/1 J mice (male, 6 weeks old) were obtained from Jackson Laboratory (Bar Harbor, ME). One day before the start of the experiment, CII solution (2 mg/ml) was prepared with 0.05 M acetic acid and stored at 4 °C. Just before the immunization, equal volumes of IFA and CII were mixed by a homogenizer in a precooled glass bottle in an ice water bath. Arthritis was induced in 8-week old male DBA/1 mice by immunizations with a 1:1 emulsion of bovine type II collagen (Chondrex) and Freund’s complete adjuvant (Sigma-Aldrich) on day 0 and with a 1:1 emulsion of bovine type II collagen in Freund’s incomplete adjuvant (Sigma-Aldrich) on day 21. […] On the day treatment was initiated, the mice were randomly assigned to controls (no collagen injection plus vehicle; […]. Mice were scored daily for signs of arthritis for 33 days. CIA development was inspected three times per week, and the inflammation of the four paws was graded from 0 to 4 (grade 0, paws with no swelling or focal redness; grade 1, paws with swelling of finger joints; grade 2, paws with a mild swelling of the ankle or wrist joints; grade 3, paws with severe inflammation of the entire paw; and grade 4, paws with deformity or ankylosis). Each paw was graded, and the four scores were totalled so that the possible maximum score per mouse was 16.
DBA1/J mice were sacrificed on day 33 after treatment and ankle joints were removed and fixed with 4% paraformaldehyde for more than 48 h. The joints were decalcified in EDTA buffer for 21 days and then embedded in paraffin blocks. Joint sections were stained with H&E or safranin O-fast green. Histological changes were examined under microscope using methods modified from McKew et al.[43] as follows: grade 0 = no abnormal findings; grade 1 = synoviocyte hypertrophy, slight synovial membrane fibrosis, slight-to-mild inflammatory cell infiltrates into the synovial membrane/articular capsule and/or joint space; grade 2 = grade 1 plus mild-to-moderate inflammatory cell infiltrates, pannus formation (if present) minimal with superficial cartilage erosion; grade 3 = grade 2 plus marked inflammatory cell infiltrates and fibrosis, mild-to-severe erosion of the cartilage extending into the subchondral bone; and grade 4 = loss of joint integrity through erosion or destruction with bone remodelling, massive inflammatory cell infiltrates, fibrosis, and ankylosis.

B-Raf = molecular target: T3, B-Raf (Homo sapiens, UniProt P15056); assay: Eurofins Kinase Profiler panel; assay type: biochemical; conditions: read-out: % inhibition (1μM), DMSO control=100%, lower=stronger
T3 construct: purchased Eurofins KinaseProfiler (Eurofins Pharma Discovery Services UK, Dundee); JAK3 also ChemPartner
T3 sequence (P15056 whole entry): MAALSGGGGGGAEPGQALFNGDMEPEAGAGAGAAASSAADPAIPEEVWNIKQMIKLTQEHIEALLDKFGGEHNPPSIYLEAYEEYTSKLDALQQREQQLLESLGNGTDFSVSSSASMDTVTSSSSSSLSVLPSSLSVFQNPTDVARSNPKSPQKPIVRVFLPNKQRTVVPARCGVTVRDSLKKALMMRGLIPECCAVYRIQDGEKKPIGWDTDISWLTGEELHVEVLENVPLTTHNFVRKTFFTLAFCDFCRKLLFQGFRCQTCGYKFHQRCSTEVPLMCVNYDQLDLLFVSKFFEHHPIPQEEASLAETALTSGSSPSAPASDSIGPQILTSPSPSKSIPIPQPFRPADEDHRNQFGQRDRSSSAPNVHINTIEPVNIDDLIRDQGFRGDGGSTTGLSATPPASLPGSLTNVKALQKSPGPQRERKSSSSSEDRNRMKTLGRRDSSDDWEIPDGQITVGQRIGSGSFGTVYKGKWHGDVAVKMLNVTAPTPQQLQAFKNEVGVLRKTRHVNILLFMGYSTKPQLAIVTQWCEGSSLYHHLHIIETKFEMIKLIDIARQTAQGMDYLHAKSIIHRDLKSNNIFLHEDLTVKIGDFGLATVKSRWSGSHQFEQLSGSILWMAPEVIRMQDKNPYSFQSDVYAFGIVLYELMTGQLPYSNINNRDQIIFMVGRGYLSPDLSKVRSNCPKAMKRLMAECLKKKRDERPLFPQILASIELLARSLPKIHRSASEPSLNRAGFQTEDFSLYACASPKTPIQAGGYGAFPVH

[2] = tested on: other kinases of the conserved cysteine panel (BMX, BTK, ITK, TXK, TEC, BLK, EGFR, ERBB4, ERBB2); assay: Cys-containing kinase family panel, kinases other than JAK3 taken together; assay type: biochemical; conditions: 1 µM
From the text: The assay protocol guides are commercially available from ChemPartner.

MEK1 = molecular target: T4, MEK1 (Homo sapiens, UniProt Q02750); assay: Eurofins Kinase Profiler panel; assay type: biochemical; conditions: read-out: % inhibition (1μM), DMSO control=100%, lower=stronger
T4 construct: purchased Eurofins KinaseProfiler (Eurofins Pharma Discovery Services UK, Dundee); JAK3 also ChemPartner

[3] = tested on: panel of 81 representative kinases; conditions: 1 μM
MKK7β = molecular target: T5, MKK7β (Homo sapiens, UniProt O14733); assay: Eurofins Kinase Profiler panel; assay type: biochemical
T5 construct: Eurofins Pharma Discovery Services UK Limited (Kinase Profiler service)
T5 sequence (O14733 whole entry): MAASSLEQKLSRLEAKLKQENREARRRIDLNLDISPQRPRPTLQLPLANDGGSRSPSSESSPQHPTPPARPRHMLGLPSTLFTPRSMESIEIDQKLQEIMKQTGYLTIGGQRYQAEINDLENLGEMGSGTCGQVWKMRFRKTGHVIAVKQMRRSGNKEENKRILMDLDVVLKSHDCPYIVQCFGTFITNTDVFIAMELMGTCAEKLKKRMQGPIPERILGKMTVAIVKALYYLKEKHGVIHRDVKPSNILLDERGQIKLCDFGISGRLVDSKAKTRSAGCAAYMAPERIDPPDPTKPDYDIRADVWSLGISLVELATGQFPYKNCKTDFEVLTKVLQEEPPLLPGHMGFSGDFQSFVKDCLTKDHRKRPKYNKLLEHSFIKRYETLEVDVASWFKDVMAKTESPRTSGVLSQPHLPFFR

CDK2 = molecular target: T6, CDK2 (Homo sapiens, UniProt P24941); assay: Eurofins Kinase Profiler panel; assay type: biochemical; conditions: read-out: % inhibition (1μM), DMSO control=100%, lower=stronger
T6 construct: purchased Eurofins KinaseProfiler (Eurofins Pharma Discovery Services UK, Dundee); JAK3 also ChemPartner

[4] = tested on: cytokine gene transcription in joint tissue of CIA mice; assay: Cytokine gene expression in joints of CIA mice by RT-PCR; assay type: in vivo, mouse
[5] = tested on: IL-6-induced JAK/STAT3 phosphorylation in TF-1 cells (JAK1); assay: STAT3 phosphorylation induced by IL-6 in TF-1 cells, Western blot
[6] = tested on: serum TNF-α, IL-1β and IL-6 in CIA mice; assay: Serum cytokines of CIA mice by ELISA; assay type: in vivo, mouse
JAK3 (Cys909) = JAK3 (Cys909) (Homo sapiens, UniProt P52333); assay: LC-MS/MS mapping of covalent modification; assay type: binding; conditions: LC-MS/MS after incubation of JAK3 with compound
Sequence of JAK3 (Cys909) (P52333 whole entry): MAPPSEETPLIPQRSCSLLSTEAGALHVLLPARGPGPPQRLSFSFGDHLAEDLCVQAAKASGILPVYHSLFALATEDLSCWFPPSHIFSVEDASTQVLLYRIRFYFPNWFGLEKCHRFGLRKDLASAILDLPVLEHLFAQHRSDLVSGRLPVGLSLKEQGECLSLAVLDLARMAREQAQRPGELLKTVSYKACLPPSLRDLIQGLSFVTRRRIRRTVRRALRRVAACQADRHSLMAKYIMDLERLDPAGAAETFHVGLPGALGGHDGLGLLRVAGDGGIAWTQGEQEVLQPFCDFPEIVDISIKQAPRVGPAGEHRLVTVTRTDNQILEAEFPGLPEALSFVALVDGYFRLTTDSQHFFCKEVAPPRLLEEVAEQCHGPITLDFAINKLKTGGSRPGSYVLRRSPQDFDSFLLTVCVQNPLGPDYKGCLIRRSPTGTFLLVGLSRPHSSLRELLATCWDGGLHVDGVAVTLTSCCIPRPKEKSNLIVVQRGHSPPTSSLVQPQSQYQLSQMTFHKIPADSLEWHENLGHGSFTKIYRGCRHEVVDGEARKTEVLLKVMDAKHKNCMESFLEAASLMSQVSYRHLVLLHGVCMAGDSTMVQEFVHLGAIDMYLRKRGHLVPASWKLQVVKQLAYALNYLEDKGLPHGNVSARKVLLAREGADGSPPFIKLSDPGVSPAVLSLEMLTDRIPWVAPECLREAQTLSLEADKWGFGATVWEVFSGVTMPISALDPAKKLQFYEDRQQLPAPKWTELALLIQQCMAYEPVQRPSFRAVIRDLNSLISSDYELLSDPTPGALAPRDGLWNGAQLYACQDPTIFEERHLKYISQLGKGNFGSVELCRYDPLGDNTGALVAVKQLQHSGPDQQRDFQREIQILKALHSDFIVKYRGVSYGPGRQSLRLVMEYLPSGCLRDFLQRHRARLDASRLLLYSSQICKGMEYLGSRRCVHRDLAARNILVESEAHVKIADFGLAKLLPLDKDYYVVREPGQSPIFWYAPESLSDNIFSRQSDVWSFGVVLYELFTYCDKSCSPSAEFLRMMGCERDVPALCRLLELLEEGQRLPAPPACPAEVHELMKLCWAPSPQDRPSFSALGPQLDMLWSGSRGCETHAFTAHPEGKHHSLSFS
Description: […]. Then, trypsin was added at a 1:50 trypsin-to-protein mass ratio for the first digestion overnight and a 1:100 trypsin-to-protein mass ratio for a second 4-h digestion. The digested peptides were dried with a SpeedVac (Thermo) for LC-MS/MS analysis.
Peptides were dissolved in solvent A (0.1% FA in 2% ACN) and directly loaded onto a reversed-phase pre-column (Acclaim PepMap 100, Thermo Scientific). […] The resulting peptides were analysed by Q Exactive^TM Plus hybrid Quadrupole-Orbitrap Mass Spectrometer (ThermoFisher Scientific).
The peptides were subjected to NSI source followed by tandem mass spectrometry (MS/MS) in Q Exactive^TM Plus (Thermo) coupled online to the UPLC. Intact peptides were detected in the Orbitrap at a resolution of 70,000. Peptides were selected for MS/MS using 30% NCE; ion fragments were detected in the Orbitrap at a resolution of 17,500. A data-dependent procedure that alternated between one MS scan followed by […] was applied for the top 20 precursor ions above a threshold ion count of 5000 in the MS survey scan with 5.0 s dynamic exclusion. The electrospray voltage applied was 2.0 kV. Automatic gain control (AGC) was used to prevent overfilling of the ion trap; 5 E4 ions were accumulated for generation of MS/MS spectra. For MS scans, the m/z scan range was 350 to 1800.

Abl = molecular target: T7, Abl (Homo sapiens, UniProt P00519); assay: Eurofins Kinase Profiler panel; assay type: biochemical; conditions: read-out: % inhibition (1μM), DMSO control=100%, lower=stronger
T7 construct: purchased Eurofins KinaseProfiler (Eurofins Pharma Discovery Services UK, Dundee); JAK3 also ChemPartner

FAK = molecular target: T8, FAK (Homo sapiens, UniProt Q05397); assay: Eurofins Kinase Profiler panel; assay type: biochemical; conditions: read-out: % inhibition (1μM), DMSO control=100%, lower=stronger
T8 construct: Eurofins Pharma Discovery Services UK Limited (Kinase Profiler service)
T8 sequence (Q05397 whole entry): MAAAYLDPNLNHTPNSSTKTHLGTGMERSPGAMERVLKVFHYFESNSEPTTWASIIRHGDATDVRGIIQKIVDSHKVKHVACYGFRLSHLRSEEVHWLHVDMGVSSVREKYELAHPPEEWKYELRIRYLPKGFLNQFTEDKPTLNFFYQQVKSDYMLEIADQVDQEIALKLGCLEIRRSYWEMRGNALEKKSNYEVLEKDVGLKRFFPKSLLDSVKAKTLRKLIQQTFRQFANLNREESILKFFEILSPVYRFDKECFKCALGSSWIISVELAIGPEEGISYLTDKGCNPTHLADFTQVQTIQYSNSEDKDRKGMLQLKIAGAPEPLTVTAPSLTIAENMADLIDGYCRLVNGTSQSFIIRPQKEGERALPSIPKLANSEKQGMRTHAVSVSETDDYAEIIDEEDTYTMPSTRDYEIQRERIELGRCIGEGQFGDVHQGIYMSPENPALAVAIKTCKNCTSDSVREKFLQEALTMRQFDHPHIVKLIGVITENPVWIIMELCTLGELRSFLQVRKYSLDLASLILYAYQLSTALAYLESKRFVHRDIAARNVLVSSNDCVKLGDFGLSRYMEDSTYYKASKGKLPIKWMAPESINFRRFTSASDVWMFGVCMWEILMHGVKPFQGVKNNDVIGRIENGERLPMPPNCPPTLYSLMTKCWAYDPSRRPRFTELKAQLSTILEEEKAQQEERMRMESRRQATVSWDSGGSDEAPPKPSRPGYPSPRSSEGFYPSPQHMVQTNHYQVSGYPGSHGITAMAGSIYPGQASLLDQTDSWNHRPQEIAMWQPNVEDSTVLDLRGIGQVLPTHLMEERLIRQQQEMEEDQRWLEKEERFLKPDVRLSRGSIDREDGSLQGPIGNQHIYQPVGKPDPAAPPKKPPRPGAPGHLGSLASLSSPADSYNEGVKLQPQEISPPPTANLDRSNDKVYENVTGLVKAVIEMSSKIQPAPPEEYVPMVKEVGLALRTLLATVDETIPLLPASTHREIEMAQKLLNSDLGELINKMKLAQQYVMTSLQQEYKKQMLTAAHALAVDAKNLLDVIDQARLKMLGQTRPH

T1 sequence (Q15303 26-1308): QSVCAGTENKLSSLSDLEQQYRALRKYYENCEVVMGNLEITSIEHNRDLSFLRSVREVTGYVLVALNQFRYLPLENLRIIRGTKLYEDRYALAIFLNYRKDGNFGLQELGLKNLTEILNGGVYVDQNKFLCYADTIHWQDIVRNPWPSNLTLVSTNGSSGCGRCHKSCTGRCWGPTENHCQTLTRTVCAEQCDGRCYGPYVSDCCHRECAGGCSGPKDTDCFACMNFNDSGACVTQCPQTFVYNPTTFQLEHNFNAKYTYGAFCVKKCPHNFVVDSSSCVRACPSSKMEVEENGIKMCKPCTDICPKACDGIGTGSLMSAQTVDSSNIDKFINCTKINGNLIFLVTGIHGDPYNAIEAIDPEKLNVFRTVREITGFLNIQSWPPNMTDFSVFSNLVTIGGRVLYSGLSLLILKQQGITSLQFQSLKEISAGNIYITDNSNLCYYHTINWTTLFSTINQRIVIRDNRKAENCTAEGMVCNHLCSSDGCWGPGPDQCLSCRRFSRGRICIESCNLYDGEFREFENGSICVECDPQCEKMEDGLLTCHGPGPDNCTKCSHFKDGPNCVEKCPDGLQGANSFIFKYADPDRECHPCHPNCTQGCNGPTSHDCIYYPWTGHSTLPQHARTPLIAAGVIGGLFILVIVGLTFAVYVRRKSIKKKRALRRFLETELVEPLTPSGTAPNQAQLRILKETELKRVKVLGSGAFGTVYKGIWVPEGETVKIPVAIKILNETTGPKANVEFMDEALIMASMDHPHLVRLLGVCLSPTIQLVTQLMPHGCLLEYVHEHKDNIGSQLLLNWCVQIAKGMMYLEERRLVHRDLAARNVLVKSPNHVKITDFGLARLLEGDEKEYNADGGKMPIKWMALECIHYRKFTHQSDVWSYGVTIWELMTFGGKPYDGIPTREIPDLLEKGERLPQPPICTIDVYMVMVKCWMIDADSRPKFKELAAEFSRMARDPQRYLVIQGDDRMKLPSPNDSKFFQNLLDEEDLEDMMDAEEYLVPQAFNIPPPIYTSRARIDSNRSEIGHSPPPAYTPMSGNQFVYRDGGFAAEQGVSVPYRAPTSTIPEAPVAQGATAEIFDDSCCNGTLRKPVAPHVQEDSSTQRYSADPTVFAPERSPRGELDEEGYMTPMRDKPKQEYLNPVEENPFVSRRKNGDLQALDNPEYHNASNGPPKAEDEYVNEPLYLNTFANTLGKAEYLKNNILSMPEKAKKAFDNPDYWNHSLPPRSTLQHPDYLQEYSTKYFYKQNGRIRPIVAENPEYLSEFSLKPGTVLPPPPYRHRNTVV

Structure (SMILES): C=CC(=O)N[C@@H]1CCCN(c2ncnc3[nH]ccc23)C1 [RB1]
- inhibition at 1 µM (ERBB4): -3.5%
- activity at 1 µM (MKK4): 114%
- H&E analysis of the major organs [1]: no significant side effects
- body weight during treatment [1]: no fluctuations
- group mean histological severity score ([1]; 10 mg/kg): 2.5
- group mean histological severity score ([1]; 30 mg/kg): 1.7
- group mean histological severity score ([1]; 100 mg/kg): 0.9
- arthritis (clinical) scores ([1]; p < 0.05 at 10 mg/kg, p < 0.001 at 30 and 60 mg/kg (so in the source)): lower arthritis scores than untreated CIA mice
- activity at 1 µM (B-Raf): 90%
- inhibition of other kinases of the conserved cysteine panel [2]: less than 15%
- activity at 1 µM (MEK1): 92%
- selectivity score S(1) ([3]; kinases with ctrl% < 1% / kinases tested): 0.012
- selectivity score S(10) ([3]; kinases with ctrl% < 10% / kinases tested): 0.012
- selectivity score S(35) ([3]; kinases with ctrl% < 35% / kinases tested): 0.086
- IC50 (MKK7β; estimated): > 0.8 µM
- activity at 1 µM (MKK7β; read-out: % inhibition (1μM), 1 µM, DMSO control=100%, lower=stronger): 20%
- activity at 1 µM (CDK2): 93%
- IL-10 expression [4]: significantly increased its expression
- gene transcription levels of IL-1, IL-2 and IL-6 [4]: dose-dependently reduced
- TNF-α and IFN-γ gene transcription levels ([4]; p < 0.01): significantly reduced
- IC50 ([5]; Homo sapiens, TF-1, read-out: IC50, STAT and JAK phosphorylation): > 50 µM
- Selectivity JAK1/JAK3 ([5]; TF-1, IL-6, pSTAT3): > 1000
- serum TNF-α, IL-1β and IL-6 levels [6]: significantly reduced in a dose-dependent manner
- covalent modification of JAK3 (Cys909-containing peptide) (JAK3 (Cys909)): covalently modify JAK3 in an apparently irreversible manner
- activity at 1 µM (Abl): 112%
- activity at 1 µM (FAK): 72%
